The values below come from US20260256925A1, “INDAZOLE DERIVATIVES AS ESTROGEN RECEPTOR DEGRADERS” (REGENTS OF THE UNIVERSITY OF MICHIGAN, priority 2022, published 2026).

Assay [1] can be described thus: Cell growth assay, WST-8 (compounds B1-B126). In kind it is cell-based. The following applies: 96 h; T47D cell line, WST-8, 4 days; read-out: Cell growth inhibition in T47D cell line IC50. The procedure, abridged: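 Read-out is WST-8 absorbance at 450 nm (2.5 h, 37° C) as a fraction of vehicle control, from three separate repeats. Compound exposure lasted 4 days, starting one day after plating 1500 cells/well.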

Assay [2] concerns the target T1, ER (Homo sapiens, UniProt P03372).
T1 construct: endogenous in cells; probably T47D or MCF-7
T1 sequence (P03372 1-595): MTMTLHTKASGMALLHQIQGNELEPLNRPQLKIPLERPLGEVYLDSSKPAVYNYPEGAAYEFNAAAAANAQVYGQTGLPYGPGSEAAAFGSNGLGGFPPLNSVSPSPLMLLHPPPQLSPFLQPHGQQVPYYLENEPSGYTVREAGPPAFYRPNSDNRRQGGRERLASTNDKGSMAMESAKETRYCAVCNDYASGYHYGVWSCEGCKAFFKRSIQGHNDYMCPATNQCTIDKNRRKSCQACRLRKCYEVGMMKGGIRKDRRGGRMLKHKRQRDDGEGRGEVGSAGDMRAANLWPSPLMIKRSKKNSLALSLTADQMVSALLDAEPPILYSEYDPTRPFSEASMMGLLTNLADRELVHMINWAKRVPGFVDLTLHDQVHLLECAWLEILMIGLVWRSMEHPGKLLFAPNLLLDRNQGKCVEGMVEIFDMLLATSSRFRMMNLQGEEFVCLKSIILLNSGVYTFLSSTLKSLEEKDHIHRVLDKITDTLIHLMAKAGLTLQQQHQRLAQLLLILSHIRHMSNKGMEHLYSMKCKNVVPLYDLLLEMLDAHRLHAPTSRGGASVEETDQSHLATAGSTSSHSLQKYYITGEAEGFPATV
Briefly: Western blot analysis (compounds B1-B126). In kind it is cell-based. The following applies: ER degradation, read-out: Traditional Western Degradation potency (DC50). As for the experimental part:
Western Blot Analysis. The cells that are treated with the compounds are lysed in Radioimmunoprecipitation Assay Protein Lysis and Extraction Buffer (e.g., 25 mmol/L Tris.HCl, pH 7.6, 150 mmol/L NaCl, 1% Nonidet P-40, 1% sodium deoxycholate, and 0.1% sodium dodecyl sulfate) containing proteinase inhibitor cocktail. Equal amounts of total protein are electrophoresed through 10% SDS-polyacrylamide gels after determination of protein concentration by BCA assay. The separated protein bands are transferred onto PVDF membranes and blotted against different antibodies. The blots are scanned, and the band intensities are quantified (e.g., by using GelQuant.NET software provided by biochemlabsolutions.com). The relative mean intensity of target proteins is expressed after normalization to the intensity of glyceraldehyde-3-phosphate dehydrogenase bands.
Western Blot Analysis. Western blot analysis was performed essentially as described previously. The cells treated with indicated compounds were lysed in Radioimmunoprecipitation Assay Protein Lysis and Extraction Buffer (25 mmol/L Tris.HCl, pH 7.6, 150 mmol/L NaCl, 1% Nonidet P-40, 1% sodium deoxycholate, and 0.1% sodium dodecyl sulfate) containing proteinase inhibitor cocktail (Roche Diagnostics, Mannheim, Germany). Equal amounts of total protein were electrophoresed through 10% SDS-polyacrylamide gels after determination of protein concentration by BCA assay (Fisher Scientific, Pittsburgh, PA). The separated protein bands were transferred onto PVDF membranes (GE Healthcare Life Sciences, Marlborough, MA) and blotted against different antibodies, as indicated. The blots were scanned, and the band intensities were quantified using GelQuant.NET software provided by biochemlabsolutions.com. The relative mean intensity of target proteins was expressed after normalization to the intensity of glyceraldehyde-3-phosphate dehydrogenase bands.
Background: In western blotting, separated proteins are transferred to a membrane and probed.

In assay [3] the target is T1, ER. Kind of assay: In-cell western blot analysis, relative ER percentage (compounds B1-B126). In kind it is cell-based. The following applies: ER degradation, 16 hours, read-out: ICW DC50. The procedure, abridged: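 Readout was a two-colour infrared in-cell western of formaldehyde-fixed cells after 16 h compound exposure at 0.5% DMSO, with 40,000 or 10,000 cells/well plated the previous night. Relative ER percentage compares treated wells against untreated/DMSO-treated wells taken as 100%.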

In another assay the target is T2, CRBN/DDB1 (Homo sapiens, UniProt Q96SW2).
T2 construct: purchased Wuxi RP210521GA
Type of assay: binding. The following applies: HTRF, Cy5-labeled Thalidomide probe. As for the experimental part:
The binding potency was determined using HTRF assay technology (Perkin Elmer). Compounds were serially diluted in DMSO and 0.2 μL volume was transferred to white 384-well plate.
(In TR-FRET formats the signal depends on donor and acceptor labels being close together.)

T2 sequence (Q96SW2 whole entry): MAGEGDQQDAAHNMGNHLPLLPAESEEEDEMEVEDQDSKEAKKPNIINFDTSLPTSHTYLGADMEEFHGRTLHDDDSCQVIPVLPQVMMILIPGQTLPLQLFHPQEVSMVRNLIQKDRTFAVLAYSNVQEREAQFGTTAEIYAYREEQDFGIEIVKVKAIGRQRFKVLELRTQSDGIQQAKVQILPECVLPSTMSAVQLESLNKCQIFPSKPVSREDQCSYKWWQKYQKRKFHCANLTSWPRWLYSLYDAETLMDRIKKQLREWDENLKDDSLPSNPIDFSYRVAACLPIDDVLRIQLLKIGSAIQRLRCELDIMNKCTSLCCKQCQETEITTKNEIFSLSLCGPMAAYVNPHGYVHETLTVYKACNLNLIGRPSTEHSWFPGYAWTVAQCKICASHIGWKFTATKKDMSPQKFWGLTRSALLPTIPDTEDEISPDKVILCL
T2 sequence (Q16531 whole entry partner): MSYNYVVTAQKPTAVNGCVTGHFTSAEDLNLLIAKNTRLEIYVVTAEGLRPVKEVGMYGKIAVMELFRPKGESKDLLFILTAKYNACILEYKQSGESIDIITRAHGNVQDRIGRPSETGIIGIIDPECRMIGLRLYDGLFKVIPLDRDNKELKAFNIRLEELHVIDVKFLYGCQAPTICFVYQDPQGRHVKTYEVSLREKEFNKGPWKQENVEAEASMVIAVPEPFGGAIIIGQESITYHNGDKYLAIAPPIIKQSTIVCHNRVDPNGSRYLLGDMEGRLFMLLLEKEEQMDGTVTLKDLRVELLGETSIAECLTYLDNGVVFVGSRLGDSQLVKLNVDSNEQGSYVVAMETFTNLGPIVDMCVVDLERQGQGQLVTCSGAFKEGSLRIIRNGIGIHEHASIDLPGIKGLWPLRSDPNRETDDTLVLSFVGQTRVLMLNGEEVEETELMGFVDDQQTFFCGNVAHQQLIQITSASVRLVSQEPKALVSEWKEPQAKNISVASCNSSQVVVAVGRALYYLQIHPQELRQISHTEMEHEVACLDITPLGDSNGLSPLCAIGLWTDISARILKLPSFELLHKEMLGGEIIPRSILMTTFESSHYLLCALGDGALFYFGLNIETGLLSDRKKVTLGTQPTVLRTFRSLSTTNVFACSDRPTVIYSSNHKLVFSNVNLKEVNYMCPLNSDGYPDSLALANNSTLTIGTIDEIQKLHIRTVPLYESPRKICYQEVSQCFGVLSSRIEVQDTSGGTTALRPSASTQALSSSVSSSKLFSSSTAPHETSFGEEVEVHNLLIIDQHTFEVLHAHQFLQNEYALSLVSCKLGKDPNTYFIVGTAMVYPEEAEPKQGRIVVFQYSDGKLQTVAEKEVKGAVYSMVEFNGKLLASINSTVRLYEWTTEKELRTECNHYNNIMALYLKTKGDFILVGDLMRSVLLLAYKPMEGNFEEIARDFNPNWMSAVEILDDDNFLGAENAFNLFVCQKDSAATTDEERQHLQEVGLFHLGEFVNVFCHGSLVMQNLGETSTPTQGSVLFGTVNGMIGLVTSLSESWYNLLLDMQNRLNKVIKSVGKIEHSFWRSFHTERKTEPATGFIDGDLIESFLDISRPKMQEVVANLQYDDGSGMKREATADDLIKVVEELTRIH

What is called IC50 is the concentration at which inhibition is half-maximal. By DC50 is commonly meant the midpoint of the concentration-degradation curve. Turning to `C[C@@H]1Cc2c(ccc3[nH]ncc23)[C@@H](c2c(F)cc(NC3CN(C(=O)[C@H]4CC[C@H](N5Cc6cc7c(cc6C5)C(=O)N(C5CCC(=O)NC5=O)C7=O)CC4)C3)cc2F)N1CC(F)F` (stereo partly drawn) [Compound B24, 6-((1S,4r)-4-(3-((4-((6S,8R)-7-(2,2-difluoroethyl)-8-methyl-6,7,8,9-tetrahydro-3H-pyrazolo[4,3-f]isoquinolin-6-yl)-3,5-difluorophenyl)amino)azetidine-1-carbonyl)cyclohexyl)-2-(2,6-dioxopiperidin-3-yl)-6,7-dihydropyrrolo[3,4-f]isoindole-1,3(2H,5H)-dione], the IC50 in assay [1] lay within 1 to 10 nM. Also, at ER [2], the DC50 lay within 10 to 100 nM. For the compound “6-((1R,4s)-4-(4-(4-((6S,8R)-7-(2,2- difluoroethyl)-8-methyl-6,7,8,9- tetrahydro-3H-pyrazolo[4,3- f]isoquinolin-6-yl)-3,5- difluorophenyl)piperidine-1- carbonyl)cyclohexyl)-2-(2,6- dioxopiperidin-3-yl)-6,7- dihydropyrrolo[3,4-f]isoindole- 1,3(2H,5H)-dione [Compound B9]”, the DC50 at ER [3] and at ER [2] was less than 10 nM each time. In the case of `C[C@@H]1Cc2c(ccc3[nH]ncc23)[C@@H](c2c(F)cc(N3CCC(CN4CCN5c6ccc7c(c6OCC5C4)CN(C4CCC(=O)NC4=O)C7=O)CC3)cc2F)N1CC(F)F` (mixture of isomers) [Compound B104, 3-((RS)-7-((1-(4-((6S,8R)-7-(2,2-difluoroethyl)-8-methyl-6,7,8,9-tetrahydro-3H-pyrazolo[4,3-f]isoquinolin-6-yl)-3,5-difluorophenyl)piperidin-4-yl)methyl)-1-oxo-1,3,5,5a,6,7,8,9-octahydro-2H-pyrazino[1′,2′:4,5][1,4]oxazino[2,3-e]isoindol-2-yl)piperidine-2,6-dione], the DC50 on ER [3] and on ER [2] was 10 to 100 nM each time. Take `C[C@@H]1Cc2c(ccc3[nH]ncc23)[C@@H](c2c(F)cc(NC3CN(C(=O)[C@H]4CC[C@@H](N5Cc6cc7c(cc6C5)C(=O)N(C5CCC(=O)NC5=O)C7=O)CC4)C3)cc2F)N1CC(F)F` (stereo partly drawn) [Compound B25, 6-((1R,4s)-4-(3-((4-((6S,8R)-7-(2,2-difluoroethyl)-8-methyl-6,7,8,9-tetrahydro-3H-pyrazolo[4,3-f]isoquinolin-6-yl)-3,5-difluorophenyl)amino)azetidine-1-carbonyl)cyclohexyl)-2-(2,6-dioxopiperidin-3-yl)-6,7-dihydropyrrolo[3,4-f]isoindole-1,3(2H,5H)-dione]: the IC50 in assay [1] fell in the range of 1 to 10 nM. For the same compound, the DC50 on ER [2] was less than 10 nM. For `C[C@@H]1Cc2c(ccc3[nH]ncc23)[C@@H](c2c(F)cc(N3CCC(CN4CCN(c5ccc6c(c5)CN(C5CCC(=O)NC5=O)C6=O)CC4)CC3)cc2F)N1CC(F)F` (stereo partly drawn) [Compound B67, 3-(5-(4-((1-(4-((6S,8R)-7-(2,2-difluoroethyl)-8-methyl-6,7,8,9-tetrahydro-3H-pyrazolo[4,3-f]isoquinolin-6-yl)-3,5-difluorophenyl)piperidin-4-yl)methyl)piperazin-1-yl)-1-oxoisoindolin-2-yl)piperidine-2,6-dione], the IC50 in assay [1] was less than 1 nM. For the same compound, the 50% degradation concentration (DC50) on ER [3] and on ER [2] was less than 10 nM each time. For the compound `C[C@@H]1Cc2c(ccc3[nH]ncc23)[C@@H](c2c(F)cc(N3CCC(CN4CCN5c6cc7c(cc6OC[C@@H]5C4)C(=O)N(C4CCC(=O)NC4=O)C7)CC3)cc2F)N1CC(F)F` (stereo partly shown) [Compound B16], in assay [1], the IC50 was less than 1 nM. For the same compound, the DC50 at ER [2] lay within 10 to 100 nM. Regarding `C[C@@H]1Cc2c(ccc3[nH]ncc23)[C@@H](c2ccc(N3CCC4(CC3)CN(C(=O)CN3Cc5cc6c(cc5C3)C(=O)N(C3CCC(=O)NC3=O)C6=O)CCO4)cn2)N1CC(F)(F)F` (stereo partly shown) [Compound B111], the IC50 in assay [1] lay in the range of 1 to 10 nM. Besides, the DC50 on ER [2] is 10 to 100 nM. The compound `C[C@@H]1Cc2c(ccc3[nH]ncc23)[C@@H](c2c(F)cc(N3CCC4(CCN(C(=O)CN5Cc6cc(F)c(C(=O)N[C@H]7CCC(=O)NC7=O)cc6C5)CC4)CC3)cc2F)N1CC(F)F` [Compound A1, 2-(2-(9-(4-((6S,8R)-7-(2,2-difluoroethyl)-8-methyl-6,7,8,9-tetrahydro-3H-pyrazolo[4,3-f]isoquinolin-6-yl)-3,5-difluorophenyl)-3,9-diazaspiro[5.5]undecan-3-yl)-2-oxoethyl)-N-((S)-2,6-dioxopiperidin-3-yl)-6-fluoroisoindoline-5-carboxamide] displayed an IC50 against CRBN/DDB1 of more than 5000 nM.

As to `C[C@@H]1Cc2c(ccc3[nH]ncc23)[C@@H](c2c(F)cc([C@H]3CC[C@@H](C(=O)N4CCC(N5Cc6cc7c(cc6C5)C(=O)N(C5CCC(=O)NC5=O)C7=O)CC4)CC3)cc2F)N1CC(F)F` (stereo partly drawn) [Compound B1, 6-(1-((1R,4s)-4-(4-((6S,8R)-7-(2,2-difluoroethyl)-8-methyl-6,7,8,9-tetrahydro-3H-pyrazolo[4,3-f]isoquinolin-6-yl)-3,5-difluorophenyl)cyclohexane-1-carbonyl)piperidin-4-yl)-2-(2,6-dioxopiperidin-3-yl)-6,7-dihydropyrrolo[3,4-f]isoindole-1,3(2H,5H)-dione], the DC50 at ER [2] is less than 10 nM. As to `C[C@@H]1Cc2c(ccc3[nH]ncc23)[C@@H](c2c(F)cc(N3CCC(CN4CCC(N5Cc6cc7c(cc6C5)C(=O)N(C5CCC(=O)NC5=O)C7=O)CC4)CC3)cc2F)N1CC(F)F` (stereo partly drawn) [Compound B70, 6-(1-((1-(4-((6S,8R)-7-(2,2-difluoroethyl)-8-methyl-6,7,8,9-tetrahydro-3H-pyrazolo[4,3-f]isoquinolin-6-yl)-3,5-difluorophenyl)piperidin-4-yl)methyl)piperidin-4-yl)-2-(2,6-dioxopiperidin-3-yl)-6,7-dihydropyrrolo[3,4-f]isoindole-1,3(2H,5H)-dione], on ER [2], the DC50 lay in the range of 10 to 100 nM. `C[C@@H]1Cc2c(ccc3[nH]ncc23)[C@@H](c2c(F)cc(N3CCC(CN4CCN(c5ccc6c(c5)C(=O)N(C5CCC(=O)NC5=O)C6=O)CC4)CC3)cc2F)N1CC(F)F` (stereo partly drawn) [Compound B65, 5-(4-((1-(4-((6S,8R)-7-(2,2-difluoroethyl)-8-methyl-6,7,8,9-tetrahydro-3H-pyrazolo[4,3-f]isoquinolin-6-yl)-3,5-difluorophenyl)piperidin-4-yl)methyl)piperazin-1-yl)-2-(2,6-dioxopiperidin-3-yl)isoindoline-1,3-dione]: the DC50 on ER [2] lay in the range of 10 to 100 nM.
